Test results published in the supplement of paper PMC10733146.

What was measured:
Experiment in all cases: viability relative to DMSO control (fraction); higher = less drug effect (more viable cells)
Conditions in all cases: 48 h
[1] = system: primary ALL patient cells (S048)
Procedure, shortened: (§1)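 Viability is given as CellTiter-Glo luminescence relative to the median of 16 inner DMSO wells. Fresh or cryopreserved primary mononuclear tumour cells from blood, bone marrow (both Ficoll-isolated) or processed lymph node were plated at 4 × 10^4 cells per well in 384-well plates against five pre-plated compound concentrations, one well each. Incubation lasted 48 h at 37 °C and 5% CO2 in RPMI-1640 with penicillin/streptomycin, L-glutamine and human serum.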

[2] = system: primary FL patient cells (S022)
Procedure, shortened: as §1

[3] = system: primary AML patient cells (S081)
Procedure, shortened: as §1

[4] = system: primary DLBCL patient cells (S049)
Procedure, shortened: as §1

[5] = system: primary AML patient cells (S019)
Procedure, shortened: as §1

[6] = system: primary AML patient cells (S011)
Procedure, shortened: as §1

[7] = system: primary T-PLL patient cells (S008)
Procedure, shortened: as §1

[8] = system: primary AML patient cells (S091)
Procedure, shortened: as §1

[9] = system: primary AML patient cells (S089)
Procedure, shortened: as §1

[10] = system: primary AML patient cells (S021)
Procedure, shortened: as §1

[11] = system: primary AML patient cells (S002)
Procedure, shortened: as §1

[12] = system: primary AML patient cells (S025)
Procedure, shortened: as §1

[13] = system: primary MCL patient cells (S068)
Procedure, shortened: as §1

[14] = system: primary T-NHL patient cells (S058)
Procedure, shortened: as §1

[15] = system: primary AML patient cells (S055)
Procedure, shortened: as §1

[16] = system: primary AML patient cells (S037)
Procedure, shortened: as §1

[17] = system: primary DLBCL patient cells (S076)
Procedure, shortened: as §1

Oc1ccc(/C=C/c2cc(O)cc(O)c2)cc1 [Resveratrol]
viability ([1]; 0.024 µM): 0.621 | viability ([1]; 0.12 µM): 0.574 | viability ([1]; 0.6 µM): 0.479 | viability ([1]; 3 µM): 0.637 | viability ([1]; 15 µM): 0.681 | viability ([2]; 0.024 µM): 0.832 | viability ([2]; 0.12 µM): 0.823 | viability ([2]; 0.6 µM): 0.784 | viability ([2]; 3 µM): 0.847 | viability ([2]; 15 µM): 0.811 | viability ([3]; 0.024 µM): 0.814 | viability ([3]; 0.12 µM): 0.846 | viability ([3]; 0.6 µM): 0.806 | viability ([3]; 3 µM): 0.762 | viability ([3]; 15 µM): 0.794 | viability ([4]; 0.024 µM): 0.849 | viability ([4]; 0.12 µM): 0.846 | viability ([4]; 0.6 µM): 0.826 | viability ([4]; 3 µM): 0.732 | viability ([4]; 15 µM): 0.711 | viability ([5]; 0.024 µM): 0.879 | viability ([5]; 0.12 µM): 0.928 | viability ([5]; 0.6 µM): 1 | viability ([5]; 3 µM): 0.918 | viability ([5]; 15 µM): 0.924 | viability ([6]; 0.024 µM): 0.808 | viability ([6]; 0.12 µM): 0.789 | viability ([6]; 0.6 µM): 0.757 | viability ([6]; 3 µM): 0.747 | viability ([6]; 15 µM): 0.682 | viability ([7]; 0.024 µM): 1 | viability ([7]; 0.12 µM): 1.02 | viability ([7]; 0.6 µM): 0.915 | viability ([7]; 3 µM): 0.966 | viability ([7]; 15 µM): 0.897 | viability ([8]; 0.024 µM): 0.863 | viability ([8]; 0.12 µM): 0.832 | viability ([8]; 0.6 µM): 0.868 | viability ([8]; 3 µM): 0.708 | viability ([8]; 15 µM): 0.553 | viability ([9]; 0.024 µM): 0.819 | viability ([9]; 0.12 µM): 0.652 | viability ([9]; 0.6 µM): 0.672 | viability ([9]; 3 µM): 0.53 | viability ([9]; 15 µM): 0.549 | viability ([10]; 0.024 µM): 0.84 | viability ([10]; 0.12 µM): 0.845 | viability ([10]; 0.6 µM): 0.772 | viability ([10]; 3 µM): 0.693 | viability ([10]; 15 µM): 0.55 | viability ([11]; 0.024 µM): 0.873 | viability ([11]; 0.12 µM): 0.932 | viability ([11]; 0.6 µM): 0.894 | viability ([11]; 3 µM): 0.796 | viability ([11]; 15 µM): 0.604 | viability ([12]; 0.024 µM): 0.933 | viability ([12]; 0.12 µM): 0.921 | viability ([12]; 0.6 µM): 0.883 | viability ([12]; 3 µM): 0.891 | viability ([12]; 15 µM): 0.758 | viability ([13]; 0.024 µM): 0.614 | viability ([13]; 0.12 µM): 0.63 | viability ([13]; 0.6 µM): 0.639 | viability ([13]; 3 µM): 0.7 | viability ([13]; 15 µM): 1.16 | viability ([14]; 0.024 µM): 0.917 | viability ([14]; 0.12 µM): 0.998 | viability ([14]; 0.6 µM): 0.957 | viability ([14]; 3 µM): 0.895 | viability ([14]; 15 µM): 0.948 | viability ([15]; 0.024 µM): 0.867 | viability ([15]; 0.12 µM): 0.931 | viability ([15]; 0.6 µM): 0.888 | viability ([15]; 3 µM): 0.83 | viability ([15]; 15 µM): 0.851 | viability ([16]; 0.024 µM): 0.792 | viability ([16]; 0.12 µM): 0.994 | viability ([16]; 0.6 µM): 0.881 | viability ([16]; 3 µM): 0.84 | viability ([16]; 15 µM): 0.96 | viability ([17]; 0.024 µM): 0.961 | viability ([17]; 0.12 µM): 0.963 | viability ([17]; 0.6 µM): 0.955 | viability ([17]; 3 µM): 0.94 | viability ([17]; 15 µM): 0.882

CS(=O)(=O)c1ccc(C(=O)Nc2ccc(Cl)c(-c3ccccn3)c2)c(Cl)c1 [Vismodegib]
viability ([1]; 0.024 µM): 0.921 | viability ([1]; 0.12 µM): 0.941 | viability ([1]; 0.6 µM): 0.933 | viability ([1]; 3 µM): 0.948 | viability ([1]; 15 µM): 1.1 | viability ([2]; 0.024 µM): 0.868 | viability ([2]; 0.12 µM): 0.958 | viability ([2]; 0.6 µM): 0.886 | viability ([2]; 3 µM): 0.911 | viability ([2]; 15 µM): 0.971 | viability ([3]; 0.024 µM): 0.926 | viability ([3]; 0.12 µM): 0.946 | viability ([3]; 0.6 µM): 0.915 | viability ([3]; 3 µM): 0.923 | viability ([3]; 15 µM): 1 | viability ([4]; 0.024 µM): 0.909 | viability ([4]; 0.12 µM): 0.939 | viability ([4]; 0.6 µM): 0.887 | viability ([4]; 3 µM): 0.878 | viability ([4]; 15 µM): 0.887 | viability ([5]; 0.024 µM): 0.903 | viability ([5]; 0.12 µM): 0.997 | viability ([5]; 0.6 µM): 0.855 | viability ([5]; 3 µM): 0.873 | viability ([5]; 15 µM): 0.989 | viability ([6]; 0.024 µM): 0.771 | viability ([6]; 0.12 µM): 0.871 | viability ([6]; 0.6 µM): 1.11 | viability ([6]; 3 µM): 0.914 | viability ([6]; 15 µM): 0.92 | viability ([7]; 0.024 µM): 0.941 | viability ([7]; 0.12 µM): 0.932 | viability ([7]; 0.6 µM): 0.983 | viability ([7]; 3 µM): 0.938 | viability ([7]; 15 µM): 0.926 | viability ([8]; 0.024 µM): 0.973 | viability ([8]; 0.12 µM): 0.901 | viability ([8]; 0.6 µM): 0.997 | viability ([8]; 3 µM): 0.996 | viability ([8]; 15 µM): 0.893 | viability ([9]; 0.024 µM): 0.87 | viability ([9]; 0.12 µM): 0.881 | viability ([9]; 0.6 µM): 0.93 | viability ([9]; 3 µM): 0.98 | viability ([9]; 15 µM): 0.642 | viability ([10]; 0.024 µM): 0.893 | viability ([10]; 0.12 µM): 0.888 | viability ([10]; 0.6 µM): 0.886 | viability ([10]; 3 µM): 0.858 | viability ([10]; 15 µM): 0.808 | viability ([11]; 0.024 µM): 0.854 | viability ([11]; 0.12 µM): 0.923 | viability ([11]; 0.6 µM): 0.862 | viability ([11]; 3 µM): 0.957 | viability ([11]; 15 µM): 0.87 | viability ([12]; 0.024 µM): 0.963 | viability ([12]; 0.12 µM): 0.984 | viability ([12]; 0.6 µM): 0.955 | viability ([12]; 3 µM): 0.89 | viability ([12]; 15 µM): 0.902 | viability ([13]; 0.024 µM): 0.891 | viability ([13]; 0.12 µM): 0.929 | viability ([13]; 0.6 µM): 0.949 | viability ([13]; 3 µM): 0.992 | viability ([13]; 15 µM): 1.07 | viability ([14]; 0.024 µM): 0.913 | viability ([14]; 0.12 µM): 0.978 | viability ([14]; 0.6 µM): 0.953 | viability ([14]; 3 µM): 0.926 | viability ([14]; 15 µM): 1.01 | viability ([15]; 0.024 µM): 0.914 | viability ([15]; 0.12 µM): 0.927 | viability ([15]; 0.6 µM): 0.931 | viability ([15]; 3 µM): 0.925 | viability ([15]; 15 µM): 0.964 | viability ([16]; 0.024 µM): 0.927 | viability ([16]; 0.12 µM): 0.979 | viability ([16]; 0.6 µM): 0.91 | viability ([16]; 3 µM): 0.958 | viability ([16]; 15 µM): 1.02 | viability ([17]; 0.024 µM): 1.01 | viability ([17]; 0.12 µM): 1.07 | viability ([17]; 0.6 µM): 1.07 | viability ([17]; 3 µM): 1.05 | viability ([17]; 15 µM): 1.01
